Measured values reported in patent publication US20130296425A1, “PROPHYLACTIC OR THERAPEUTIC AGENT FOR A PERIPHERAL NERVE DISORDER INDUCED BY ANTI-CANCER AGENTS” (NAGOYA INDUSTRIAL SCIENCE RESEARCH INSTITUTE, priority 2011, published 2013).

Key:
[1] = tested on: paclitaxel-induced peripheral nerve disorder rats; assay: Repeated intraperitoneal administration, hyperalgesia by paclitaxel (von Frey test); type: in vivo, rat
Procedure: With regard to male SD rats of six weeks age used as the experimental animals, their 50% reaction threshold values to the mechanical stimulus (the measuring method will be mentioned later) and body weights were measured and then the following seven groups each comprising eight rats was organized. • Normal control group • Onset control group • Prophylactic administration group with 0.25 mg/kg/day of a test drug • Prophylactic administration group with 0.50 mg/kg/day of a test drug • Therapeutic administration group with 0.25 mg/kg/day of a test drug • Therapeutic administration group with 0.50 mg/kg/day of a test drug • Therapeutic administration group with 30 mg/kg/day of gabapentin (positive control)
Taxol (registered trademark) injection 30 mg (manufactured by Bristol-Myers Squibb) containing 6 mg/mL of paclitaxel was used. To the rats of each of the above groups except the normal control group was intraperitoneally administered paclitaxel diluted to 2 mg/mL with saline in a dose of 2 mg/kg four times every other day whereupon the paclitaxel-induced peripheral nerve disorder rats were prepared. To the normal control group, an equivalent mixture of ethanol and Cremophor EL (registered trademark; manufactured by Sigma; a solvent for Taxisol (registered trademark) injection) diluted with saline to an extent of 3-fold was administered similarly.
To prophylactic administration groups of a test drug, the compound 4 in a dose of 0.25 mg/kg/day or 0.50 mg/kg/day was repeatedly administered intraperitoneally since immediately after initiation of administration of paclitaxel until 13 days thereafter. Meanwhile, to therapeutic administration groups of a test drug and to a therapeutic administration group of gabapentin, the compound 4 in a dose of 0.25 mg/kg/day or 0.50 mg/kg/day or gabapentin in a dose of 30 mg/kg/day, respectively was repeatedly administered intraperitoneally during the period of from 14 days to 42 days after initiation of the administration of paclitaxel.
The seven groups of rats of the above (1) were placed in a transparent acrylic cage with a wire-meshed floor and habituated for about three minutes and the 50% reaction threshold values to the mechanical stimulus of right hind limb were measured after 3, 7, 14, 21, 28, 35 and 42 days from initiation of the administration of paclitaxel. Incidentally, during the period of administration of a test drug, its values were measured after 24 hours from the last administration of a test drug.
The measurement was conducted using von Frey filaments (manufactured by North Coast Medical Inc.) in accordance with the methods of Chaplan, et al. (Journal of Neuroscience Methods, vol. 53, no. 1, pages 55 to 63, 1994) and Dixon, et al. (Annual Review of Pharmacology and Toxicology, vol. 20, pages 441 to 462, 1980). […] The case where the rat escaped at the instance of removing the filament was also called positive. When the positive reaction was noted, stimulus was conducted similarly using a filament of one rank weaker while, when no reaction was noted, stimulus was conducted similarly using a filament of one rank stronger and the point when the reaction changed from negative to positive or from positive to negative was called the first two reactions. […] A 50% reaction threshold value to the mechanical stimulus was measured using the reaction to the six stimuli in total and then (mean value) ± (standard error) for each group was calculated. […]

[2] = tested on: paclitaxel-induced peripheral nerve disorder rats; assay: Oral administration (suspension or α-CD inclusion complex), hyperalgesia by paclitaxel (von Frey test); type: in vivo, rat; settings: for 50% reaction threshold value, after 5 hours from administration / AUC of 50% reaction threshold value over time, measured value: single dose; for 50% reaction threshold value, before administration: baseline
Procedure: A suspension ([…]) 5 mL of the compound 4 was mixed with a 1% α-CD aqueous solution followed by stirring overnight to prepare an α-CD inclusion complex of the compound 4.
With regard to male SD rats of six weeks age used as the experimental animals, the rats were organized into the following six groups each comprising 6 rats. • Oral administration group with 0.3 mg/kg of the test drug suspension • Oral administration group with 3 mg/kg of the test drug suspension • Oral administration group with an α-CD inclusion complex containing 0.3 mg/kg of the test drug • Oral administration group with an α-CD inclusion complex containing 3 mg/kg of the test drug • α-CD oral administration group • Intraperitoneal administration group with 0.3 mg/kg of the test drug
Paclitaxel-induced peripheral nerve disorder rats were prepared in the same manner as in the above 1.[1](2). The compound 4 was used as a test drug and, after 39 days from the initiation of the administration of paclitaxel, it was orally administered in a single dose where the dose calculated as a test drug became 0.3 mg/kg or 3 mg/kg to oral administration groups with the test drug suspension or to oral administration groups with an α-CD inclusion complex containing the test drug while, to an intraperitoneal administration group with the test drug, it was intraperitoneally administered in a single dose of 0.3 mg/kg. Further, to an α-CD Oral administration group, an α-CD solution was orally administered in a single dose of 15 mg/kg.
A von Frey test was conducted in the same manner as in the above 1.[1](4) using the rats mentioned in the above (2) and 50% reaction threshold values in each group were measured before initiating the administration of a test drug and after 1, 5 and 24 hours. Further, AUC (area of the part surrounded by a curve and an abscissa axis (a time axis) in a graph showing the 50% reaction threshold value over time from administration of the test drug) was calculated and the relative ratio of each group was calculated where the AUC of the intraperitoneal administration group with 0.3 mg/kg of the test drug was adopted as 100.

[3] = oral 0.3 mg/kg, test drug suspension
[4] = oral 3 mg/kg, test drug suspension

CCCCCCC/C=C/C(=O)OCC [Compound 4, Trans-2-decenoic acid ethyl ester]
effect of suppressing the hyperalgesia after completion of the repeated administration ([1]; paclitaxel model, repeated i.p. 0.25 or 0.50 mg/kg/day): still continued
50% reaction threshold values to the mechanical stimulus vs onset control group ([1]; prophylactic i.p. 0.5 mg/kg/day until 13 days, from 14 days to 28 days after initiation of paclitaxel, male SD rats): significantly high
50% reaction threshold values to the mechanical stimulus vs onset control group ([1]; therapeutic i.p. 0.25 mg/kg/day (days 14-42), from 21 days to 35 days after paclitaxel): significantly high
50% reaction threshold values to the mechanical stimulus vs onset control group ([1]; therapeutic i.p. 0.5 mg/kg/day (days 14-42), after 28 days from paclitaxel): significantly high
50% reaction threshold value, after 5 hours from administration ([2]; intraperitoneal 0.3 mg/kg): 8.57
AUC of 50% reaction threshold value over time, measured value ([2]; intraperitoneal 0.3 mg/kg): 74.59
50% reaction threshold value, before administration ([2]; intraperitoneal 0.3 mg/kg): 4.58
AUC relative ratio ([2]; intraperitoneal 0.3 mg/kg, this group adopted as 100): 100
50% reaction threshold value, after 5 hours from administration [2, 3]: 6.00
AUC of 50% reaction threshold value over time, measured value [2, 3]: 31.83
AUC relative ratio ([2]; oral 0.3 mg/kg, test drug suspension, AUC of i.p. 0.3 mg/kg group = 100): 43
50% reaction threshold value, before administration [2, 3]: 4.57
50% reaction threshold value, after 5 hours from administration [2, 4]: 8.66
AUC of 50% reaction threshold value over time, measured value [2, 4]: 54.99
AUC relative ratio ([2]; oral 3 mg/kg, test drug suspension, AUC of i.p. 0.3 mg/kg group = 100): 74
50% reaction threshold value, before administration [2, 4]: 4.57
